In patent EP3613735A1, “NOVEL SIRT 1 ACTIVATOR AND MEDICINAL USE THEREOF” (Pusan National University Industry - University Cooperation …, priority 2017, dated 2018):

Assays:
SIRT 1 = molecular target: T1, SIRT 1 (Homo sapiens, UniProt Q96EB6); test: SIRT 1 fluorometric drug discovery kit (AK-555, Biomol), deacetylation of Fluor de Lys-SIRT 1 substrate; type: biochemical; details: 100 µM candidate vs 100 µM resveratrol positive control; 25 µM Fluor de Lys-Sirt1, 25 µM NAD+
T1 sequence (Q96EB6 1-747): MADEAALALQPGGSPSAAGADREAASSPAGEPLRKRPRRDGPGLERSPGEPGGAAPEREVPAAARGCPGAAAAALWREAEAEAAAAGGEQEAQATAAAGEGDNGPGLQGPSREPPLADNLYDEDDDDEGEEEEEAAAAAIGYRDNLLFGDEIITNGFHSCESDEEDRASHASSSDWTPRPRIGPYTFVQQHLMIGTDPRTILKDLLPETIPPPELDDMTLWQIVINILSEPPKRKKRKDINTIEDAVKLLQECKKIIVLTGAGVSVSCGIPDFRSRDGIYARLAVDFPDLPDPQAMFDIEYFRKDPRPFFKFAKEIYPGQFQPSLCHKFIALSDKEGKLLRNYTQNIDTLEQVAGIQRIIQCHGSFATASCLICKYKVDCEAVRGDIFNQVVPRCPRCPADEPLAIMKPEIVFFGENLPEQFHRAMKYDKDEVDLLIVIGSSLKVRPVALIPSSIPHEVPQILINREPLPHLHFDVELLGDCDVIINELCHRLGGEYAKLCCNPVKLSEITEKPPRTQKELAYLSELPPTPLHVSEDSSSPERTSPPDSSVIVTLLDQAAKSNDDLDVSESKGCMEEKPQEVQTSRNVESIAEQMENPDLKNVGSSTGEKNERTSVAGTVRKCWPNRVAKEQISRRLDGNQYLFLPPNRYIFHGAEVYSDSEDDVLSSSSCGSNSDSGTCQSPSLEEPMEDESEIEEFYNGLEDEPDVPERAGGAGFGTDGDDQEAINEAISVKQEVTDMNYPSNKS
Experimental: SIRT 1 activity of candidate SIRT 1 activator compounds synthesized based on the benzo[d]furan backbone were measured using a SIRT 1 fluorometric drug discovery kit (AK-555, Biomol). Briefly, as the substrate for analysis, 0.2 U/L of Fluor de Lys-SIRT 1 substrate developer mixture is used, which is amino acid 379382 of human […] AC), and SIRT 1 incubated with cosubstrate NAD^+. The degree of initial deacetylation of SIRT 1 for 100 μM candidate was measured using 100 μM resveratrol as a positive control in 25 μM Fluor de Lys-Sirt1 and 25 μM NAD^+ environments. The reaction was stopped using Fluor de LysTM Developer II/2 mM nicotinamide, followed by measuring fluorescence (Excitation: 360 nm, Emission: 460 nm). The SIRT 1 activity for candidate SIRT 1 activator compounds synthesized based on the benzo[d]oxazole backbone were measured using SIRT 1 fluorometric drug discovery kit (AK-555, Biomol). Briefly, 0.2 U/L of Fluor de Lys-SIRT 1 substrate developer mixture liquid was used as the analytical substrate, meaning amino acid 379382 of human […] […] The initial degree of deacetylation of SIRT 1 for 100 μM candidate was measured using 100 μM resveratrol as a positive control in 25 μM Fluor de Lys-Sirt1 and 25 μM NAD+. The reaction was stopped using Fluor de LysTM Developer II/2 mM nicotinamide, followed by fluorescence (Excitation: 360 nm, Emission: 460 nm).

[1] = tested on: FASN, ACC, SREBP-1a, SREBP-1c and SREBP-2; test: Liver mRNA expression of fat synthesis genes, quantitative real-time PCR; type: in vivo, mouse; details: db/db mice, oral 5 mg/kg daily for 4 weeks
Experimental: Since obesity and insulin resistance are representative diseases directly related to the development of non-alcoholic fatty liver, the improvement effect of Compound 32u on fatty liver was analyzed. Compound 32u was orally administered to db/db mice (9 weeks old) at a concentration of 5 mg/kg daily for 4 weeks. First, the accumulation of fat in the liver, the most representative phenotype, was measured. Briefly, about 50 mg of liver was quantified in cold phosphate buffered saline (PBS) or 0.9% sodium chloride (NaCl) and crushed, followed by treating with mixed solvent of chloroform and methanol (MeOH) in a volume ratio of 2:1 and reacted for 2 hours. […] Thereafter, the amount of neutral fat was measured by absorbance using a neutral fat measurement kit (Stanbio laboratory, TX USA). In order to confirm the corresponding mechanism, mRNA expression of genes related to fat synthesis and degradation was analyzed. […] For the synthesized cDNA, a quantative real-time polymerase chain reaction (quantative real-time PCR) was performed to target the desired gene as a primer and quantify it in real time. Since obesity and insulin resistance are representative diseases directly related to the development of non-alcoholic fatty liver, the improvement effect of Compound 70c on fatty liver was analyzed. […] First, the accumulation of fat in the liver, the most representative phenotype, was measured. […]

| SMILES | SIRT 1 activity (SIRT 1) | expression of fat synthesis genes (FASN, ACC, SREBP-1a, SREBP-1c and SREBP-2) [1] |
| --- | --- | --- |
| O=C(Nc1ccccc1-c1nc2cc(CN3CCN(C4CCCCC4)CC3)ccc2o1)c1ccc2ccccc2c1 [Compound 70c, N-(2-(5-((4-Cyclohexylpiperazin-1-yl)methyl)benzo[d]oxazol-2-yl)phenyl)-2-naphthamide] | higher SIRT 1 activity effect than resveratrol | significantly reduced |
| Cl.O=C(Nc1ccccc1-c1cc2ccc(CN3CCNCC3)cc2o1)c1ccc2ccccc2c1 [Compound 32u, N-(2-(6-(Piperazin-1-ylmethyl)benzofuran-2-yl)phenyl)-2-naphthamide hydrochloride] | higher SIRT 1 activity effect than resveratrol | significantly reduced |
